In BindingDB's records for doi:10.1021/jm980063g (Research Triangle Institute, 1998):

Assay: The compound was tested for antagonist activity by selective inhibition of [35S]GTP-gamma-S, binding in Guinea pig caudate stimulated by […] (Opioid receptor delta 1)

Row | Compound | Ki
1 | C[C@H]1CN(C/C=C/c2ccccc2)CC[C@@]1(C)c1cccc(O)c1 [3-[(3R,4R)-3,4-Dimethyl-1-((E)-3-phenyl-allyl)-piperidin-4-yl]-phenol] | 1.5 nM
2 | Cc1ccccc1/C=C/CN1CC[C@@](C)(c2cccc(O)c2)[C@@H](C)C1 [RTI-5989-25] | 0.355 nM
